Measurements published in PMC9144433, “The Effect of Standardised Leaf Extracts of Gaultheria procumbens on Multiple Oxidants, Inflammation-Related Enzymes, and Pro-Oxidant and Pro-Inflammatory Functions of Human Neutrophils” (Molecules, 2022).

How the values were obtained:
hyaluronidase (HYAL) = biological target: T1, hyaluronidase (HYAL); test: HYAL inhibition, 96-well plate reader; assay type: biochemical; details: positive control; n = […]
T1 construct: gene SPAM1; reagents from Sigma-Aldrich; bovine testes preparation is usual
Text: HYAL inhibition, 96-well plate reader on hyaluronidase (HYAL)

lipoxygenase (LOX) = biological target: T2, lipoxygenase (LOX); test: LOX inhibition, 96-well plate reader; assay type: biochemical; details: positive control; n = […]
T2 construct: gene LOX1.1; reagents from Sigma-Aldrich; soybean enzyme is usual

`COc1ccc2c(c1)c(CC(=O)O)c(C)n2C(=O)c1ccc(Cl)cc1` [IND] was tested, and the “HYAL / IC50 (μg/mL) ^a” value (hyaluronidase (HYAL)) was 12.68 ± 1.79 µg/mL and the “LOX / IC50 (μg/mL) ^a” value (lipoxygenase (LOX)) was 91.89 ± 3.95 µg/mL.
In the case of `O=c1c(O)c(-c2ccc(O)c(O)c2)oc2cc(O)cc(O)c12` [compound 41, QU], the “HYAL / IC50 (μg/mL) ^a” value (hyaluronidase (HYAL)) is reported as 31.78 ± 1.52 µg/mL.
For `C[C@@H]1C[C@H]2[C@@H]3CCC4=CC(=O)C=C[C@]4(C)[C@@]3(F)[C@@H](O)C[C@]2(C)[C@@]1(O)C(=O)CO` [DEX], the “HYAL / IC50 (μg/mL) ^a” value (hyaluronidase (HYAL)) was 14.07 ± 1.25 µg/mL and the “LOX / IC50 (μg/mL) ^a” value (lipoxygenase (LOX)) was 120.16 ± 4.86 µg/mL.
